What was measured:
[1] = system: stress-induced fecal output; assay: Psychological stress-induced (water avoidance) IBS model, SC administration; type: in vivo; conditions: for Stool Output: 6-h collection
Source text: (§1) For drug preparation and administration, the compounds were put into solution with sterile normal saline and sonicated briefly, if necessary. The drugs were made up at concentrations such that the rats received the drugs PO or SC at the rate of 1 cc per kilogram. Mice received the CHX(3,4,3)-trans IP at 1 cc per 100 grams. The solutions were made fresh the day of the study. Control animals received an equivalent amount of saline PO or SC.
Animal care and experimental procedures were approved by the Institutional Animal Care and Use Committee. Male Sprague-Dawley rats (250-350 g, Harlan Sprague-Dawley, Indianapolis, Ind.) were housed in polycarbonate cages in a temperature- and humidity-controlled room with a 12-hour light/dark cycle. The experiments were performed at the same time of the day to decrease diurnal variability. A typical experiment involved 20 rats: 5 saline-treated controls and 5 pretreated with polyamine analogues at each of three doses as either a SC injection or a PO gavage. The rats in the SC studies and in one set of experiments involving PO administration were allowed ad libitum access to a standard rodent diet and tap water until the morning of the experiment. Stress was initiated 30 minutes post drug as described below. In another set of experiments involving PO administration, the animals were fasted overnight but were allowed free access to water. […] In a final experiment, non-stressed control rats were injected with saline SC and housed in individual polycarbonate cages. The fecal output (number of pellets) of the stressed and unstressed animals was recorded at 30-min intervals for a 6-h period, during which they received no food or water.
(§2) To initiate the stress, water was added to each cage to a depth of at least 4.5 cm, i.e., within 0.5 cm of the top of the Pyrex dish. To avoid contact with water, the rats stand on the glass dish for the 6 h of the study. Stool output was expressed as the total number of fecal pellets excreted over the 6-h collection period. Percent reduction was calculated by dividing the mean value from the treated animals (T) by the mean value from the control animals (C), subtracting the resulting quotient from 1.0, and multiplying by 100 [i.e., (1.0−T/C)×100].
(§3) A one-tailed t-test assuming unequal variance was performed on the stool output data of the treated vs control (0 mg/kg) animals for each compound. A value of P<0.05 was considered significant.
The psychological stress-induced IBS model involves subjecting the rats to an aversive stimulus (water) and observing the increase in fecal output over a period of time. […] Control rats received an equivalent amount of saline SC.

[2] = system: stress-induced fecal output; assay: Psychological stress-induced (water avoidance) IBS model, PO administration by gavage; type: in vivo, rat; conditions: 6-hr collection
Source text: as §1
Animal care and experimental procedures were approved by the Institutional Animal Care and Use Committee. Male Sprague-Dawley rats (250-350 g, Harlan Sprague-Dawley, Indianapolis, Ind.) were housed in polycarbonate cages in a temperature- and humidity-controlled room with a 12-hour light/dark cycle. The experiments were performed at the same time of the day to decrease diurnal variability. A typical experiment involved 20 rats: 5 saline-treated controls and 5 pretreated with polyamine analogues at each of three doses as either a SC injection or a PO gavage. The rats in the SC studies and in one set of experiments involving PO administration were allowed ad libitum access to a standard rodent diet and tap water until the morning of the experiment. Stress was initiated 30 minutes post drug as described below. In another set of experiments involving PO administration, the animals were fasted overnight but were allowed free access to water. The animals were then stressed from ½ h to 2 h post-drug (data not shown). In a final experiment, non-stressed control rats were injected with saline SC and housed in individual polycarbonate cages. The fecal output (number of pellets) of the stressed and unstressed animals was recorded at 30-min intervals for a 6-h period, during which they received no food or water.
as §2, with “Once the drug had been administered, the animals were housed individually in polycarbonate cages containing a clear 70×50 mm Pyrex crystallization dish (Fisher, Pittsburgh, Pa.) inverted in the center and held in place with vacuum grease. To initiate” for “To initiate”
as §3
Because an orally active compound would be desirable for the treatment of IBS, selected analogues utilizing oral administration in the same model were assessed. In the initial studies animals were utilized that had been fasted overnight. Rodents were then given the drug of interest PO by gavage and stressed ½ h, 1 h, or 2 h post-drug. Unfortunately, because of the low baseline stool output in fasted control rats, the reductions in fecal output observed upon drug administration cannot be reported with any confidence (data not shown). Thereafter, only non-fasted animals were employed and were given the agents by gavage at doses of 11.6, 23.2, 57.8, or 115.6:mol/kg 30 minutes before initiating the stress. […] At doses of 11.6 and 23.2:mol/kg, CHX(3,4,3)-trans reduced stooling by about 80% (P=0.001 and <0.001, respectively). DEHSPM was effective at a dose of […]:mol/kg (40% diminution of fecal output; P<0.01), and DE(5,4,5) was active at doses of 23.2 and 57.8:mol/kg (55 and 73% reductions in fecal output, respectively; P<0.001 for both doses).

[3] = system: stress-induced fecal output; assay: as above; type: in vivo, rat; conditions: 2.3 μmol/kg PO, non-fasted, stress 30 min post drug, 6-hr collection
[4] = Acute toxicity assessment, single intraperitoneal injection; type: in vivo
Experimental: For the acute toxicity assessment the CHX(3,4,3)-trans was administered to female CD-1 mice (Charles River, Wilmington, Mass.) as a single intraperitoneal (IP) injection. The animals were carefully observed post-dosing and were scored 2 h after administration of the drug.
as §1

[5] = system: castor oil-induced diarrhea; conditions: cited from earlier work

SMILES: CCNCCCN[C@H]1CC[C@H](NCCCNCC)CC1 [Compound 12, N,N′-bis[3-(ethylamino)propyl]-trans-1,4-cyclohexanediamine]
- Stool Output ([1]; 0.0726 μmol/kg SC): 5.4 ± 2.1 number of fecal pellets
- Stool Output ([1]; 0.145 μmol/kg SC): 2.2 ± 1.3 number of fecal pellets
- Stool Output ([1]; 0.29 μmol/kg SC): 0.6 ± 0.9 number of fecal pellets
- toxic effects observed in stressed rats ([1]; 0.58 μmol/kg SC): ^gToxic effects were evident, including huddling in the corner of the cage.
- Stool Output ([1]; 0.58 μmol/kg SC): 0 ± 0 number of fecal pellets
- toxic effects observed in stressed rats ([1]; 1.16 μmol/kg SC): ^gToxic effects were evident, including huddling in the corner of the cage.
- Stool Output ([1]; 1.16 μmol/kg SC): 0 ± 0 number of fecal pellets
- toxic effects observed in stressed rats ([1]; 2.3 μmol/kg SC): ^gToxic effects were evident, including huddling in the corner of the cage.
- Stool Output ([1]; 2.3 μmol/kg SC, stress 30 min post drug): 0 ± 0 number of fecal pellets
- diminution in fecal output ([1]; 0.07 :mol/kg SC): 50%
- inhibition in vivo at 0.0726 µmol/kg ([1]; Rattus norvegicus, 0.0726 μmol/kg SC, vs stressed controls, 6 h, read-out: % Reduction): 52%
- inhibition in vivo at 0.145 µmol/kg ([1]; Rattus norvegicus, 0.145 μmol/kg SC, vs stressed controls, 6 h, read-out: % Reduction): 80%
- inhibition in vivo at 0.29 µmol/kg ([1]; Rattus norvegicus, 0.29 μmol/kg SC, vs stressed controls, 6 h, read-out: % Reduction): 95%
- inhibition in vivo at 0.58 µmol/kg ([1]; Rattus norvegicus, 0.58 μmol/kg SC, vs stressed controls, 6 h, read-out: % Reduction): 100%
- inhibition in vivo at 1.16 µmol/kg ([1]; Rattus norvegicus, 1.16 μmol/kg SC, vs stressed controls, 6 h, read-out: % Reduction): 100%
- inhibition in vivo at 2.3 µmol/kg ([1]; Rattus norvegicus, 2.3 μmol/kg SC, vs stressed controls, 6 h, read-out: % Reduction): 100%
- activity at diminishing stress-induced fecal output (in words) ([1]; SC administration to stressed rats): most effective against stress-induced stooling, regardless of the mode of administration
- dose needed to reduce fecal output of the stressed animals to that of the unstressed controls ([1]; SC, rats): 0.0625 mg/kg
- lowest dose that reduced stool output by >50% relative to the stressed controls ([1]; SC, rats): 0.03125 mg/kg
- 1 mg/kg neurotoxic dose relative to lowest dose reducing stool output by >50% ([1]; rats, 1 mg/kg vs 0.03125 mg/kg): greater than 30 times
- Stool Output ([2]; 11.6 μmol/kg PO): 2.2 ± 1.3 number of fecal pellets
- Stool Output ([2]; 23.2 μmol/kg PO): 2.0 ± 1.9 number of fecal pellets
- Stool Output [3]: 9.0 ± 1.6 number of fecal pellets
- acute toxicity ([4]; IP, female CD-1 mice, single dose, scored 2 h): about 150 mg/kg
- toxic doses (neurological signs) ([4]; IP, single dose, mice): ≥ 125 mg/kg
- toxic dose in mice, allometrically scaled, relative to the 0.0625 mg/kg effective dose in rats ([4]; mouse toxic dose vs rat dose of 0.0625 mg/kg): at least 1000 times
- signs of acute toxicity in mice ([4]; toxic doses, mice): uncoordinated movements, intention tremors, and severe motor dysfunction, especially of the hind limbs
- doses at which signs of motor dysfunction, including seizures, were observed ([5]; rats, rodent antidiarrheal model): ≥ 1 mg/kg
- activity in castor oil-induced diarrhea model (in words) ([5]; rodent): most effective of the SPM analogues tested

Reference: US6818656B2, “Method and composition for treatment of irritable bowel disease” (University of Florida, priority 2001, dated 2004)
